These results are taken from patent publication US8969297B2, “Methods and compositions for the induction of hypothermia” (priority 2009, dated 2015).

Data set [1] deals with asphyxial cardiac arrest rat model. Kind of data set: Survival in rat outcome model of asphyxial cardiac arrest. The format is in vivo. As to conditions: for Survival days: individual rats; for effect on mortality / neurological deficit score: compound alone under normothermic conditions. As for the experimental part: (§1) The outcome model of asphyxial cardiac arrest in rats was used for these studies and has been described previously (Katz et al. (1995) J Cereb Blood Flow Metab 15:1032-1039). Briefly, rats were anesthetized with 4% isoflurane, intubated and mechanically ventilated, anesthesia was titrated and vessel catheters inserted. Cardiac arrest was induced by apneic asphyxia with chemical paralysis (vecuronium 2 mg/kg) and discontinuation of ventilation. After 10 minutes of asphyxial cardiac arrest, rats were resuscitated with mechanical ventilation, 100% O2, epinephrine (0.005 mg/kg) and chest compressions. Rats were extubated two hours after resuscitation and placed in a humidity and temperature controlled incubator. Rats were sacrificed by an overdose (5%) of inhaled isoflurane and then perfusion fixed with 100 ml of 4% paraformaldehyde at a perfusion pressure of 100 mmHg. Multiple coronal sections (10 μm thickness) of the brain (Paxinos et al. (1995) J Neurosci Methods 13:139-143) were cryosectioned for future immunostaining and histological evaluation.
(§2) Rats underwent ten minutes of asphyxial cardiac arrest and resuscitation. Five minutes after the return of spontaneous circulation (ROSC), rats were administered 15 ml/kg of iced normal (0.9%) saline (5° C.) (forced hypothermia) or half of the indicated treatment (at room temperature, 21° C.) intravenously over 20 minutes. The first infusion was followed immediately by a second 20-minutee infusion (15 ml/kg) with iced saline (5° C.) for the forced hypothermia group or the second half of the indicated treatment (at 21° C.).
The rat outcome model of asphyxial cardiac arrest was used to test each of the components of the cocktail to determine the effects of the components on NDS and performance in the Morris Water Maze. Rats undergoing forced hypothermia and rats maintained under normothermic conditions (with 0.5 U/kg vasopressin administered) served as controls.

For data set [2] the test system is unchanged. Kind of data set: Neurological deficit score (NDS) in rat model of asphyxial cardiac arrest. The format is in vivo. To be noted: normothermic conditions; for NDS 72 hours after resuscitation: ethanol alone or vasopressin alone. As to the method: as §1, with “evaluation. […]” for “evaluation.”
The total ND score is composed of 5 components as outlined below. A normal rat has a ND score of 0% and a brain-dead rat has an ND score of 100% (Katz et al. (1995) J Cereb Blood Flow Metab 15:1032-1039).
Five minutes after the return of spontaneous circulation (ROSC), rats were administered 15 ml/kg of iced normal (0.9%) saline (5° C.) (forced hypothermia) or half of the indicated treatment (at room temperature, 21° C.) intravenously over 20 minutes. The first infusion was followed immediately by a second 20-minutee infusion (15 ml/kg) with iced saline (5° C.) for the forced hypothermia group or the second half of the indicated treatment (at 21° C.).
The rat outcome model of asphyxial cardiac arrest was used to test each of the components of the cocktail to determine the effects of the components on NDS and performance in the Morris Water Maze. Rats undergoing forced hypothermia and rats maintained under normothermic conditions (with 0.5 U/kg vasopressin administered) served as controls. Raw survival and NDS data is shown in Table 1 and Table 2 provides a summary of the survival and NDS data.

For a further data set, the system named is rats. To be noted: ethanol alone. As to the method:
as §2

The conditions of data set [3]: Gable (2004); cited from earlier work.
Where [4] appears, read: 20 mcg/kg, normothermic conditions.
Setting [5] is: 0.005 mg/kg, normothermic conditions.
Where [6] appears, read: 0.8 g/kg, normothermic conditions.
[7] abbreviates: 1 mg/kg, normothermic conditions.
[8] abbreviates: 0.25 U/kg, normothermic conditions.

On to `NCCc1ccc(O)c(O)c1` [Dopamine, dopamine], for which, in data set [1] (setting [4]), the “Average Survival days” value was found to be 1 days and the Survival days is 1 days.

Consider `CNC[C@H](O)c1ccc(O)c(O)c1` [Epinephrine, epinephrine], for which, in data set [1] (setting [5]), the “Average Survival days” value turned out to be 1 days and the Survival days was 1 days. Further, the “Average Survival days” value in data set [1] (0.01 mg/kg, normothermic conditions) turned out to be 1 days.

On to `CCO` [Ethanol, ethanol], for which the “Average Survival days” value in data set [1] (0.5 g/kg, normothermic conditions) worked out at 1 days; in data set [1] (setting [6]), 1 days; in data set [1] (1 g/kg, normothermic conditions), 1.5 days; in data set [1] (1.5 g/kg, normothermic conditions), 3 days; in data set [1] (2 g/kg, normothermic conditions), 3.33 days; in data set [1] (2.5 g/kg, normothermic conditions) it was 1 days. For the same molecule, the “Average Survival days” value in data set [1] (3 g/kg, normothermic conditions) was 1 days. The same molecule returned a Survival days in data set [1] (setting [6]) of 1 days. Further, in data set [1], the “effect on mortality / neurological deficit score” value was “mild reduction in mortality”. For the same molecule, the “NDS day 3, median neurological deficit score” value in data set [2] (1.5 g/kg) is reported as “NA, (36.5)”; in data set [2] (2 g/kg) it was “(31)”. Besides, the “neurological deficit score at 72 hours after resuscitation” value in data set [2] (ethanol alone 1 g/kg, 1.5 g/kg and 2 g/kg) was “reduced the neurological deficit score”. Moreover, the “NDS 72 hours after resuscitation” value in data set [2] came out at 31. Further, the “minimum dose able to reliably induce hypothermia” value with rats is recorded as “about 0.75 g/kg”. Also, in the data set on rats (higher doses do not further lower the temperature), the “dose at which the hypothermic effect plateaus” value worked out at 3 g/kg. The temperature reached entry with rats (maintained during infusion) was “about 33 °C”. Also, the “acute ingestion considered toxic” value in data set [3] is “above 10 g/kg”.

Regarding `CCN(CC)CC(=O)Nc1c(C)cccc1C` [Lidocaine, 2-(diethylamino)-N-(2,6-dimethylphenyl)acetamide], in data set [1] (setting [7]), the “Average Survival days” value was 1 days and the Survival days stood at 1 days.

Turning to `Cc1[nH]c(=O)c(C#N)cc1-c1ccncc1` [Milrinone], the “Average Survival days” value in data set [1] (0.3 mg/kg, normothermic conditions) came to 1 days.

As for `CC(=O)N[C@@H](CS)C(=O)O` [N-Acetylcysteine, (2R)-2-acetamido-3-sulfanylpropanoic acid], the “Average Survival days” value in data set [1] (50 mg/kg, normothermic conditions) turned out to be 1.5 days; in data set [1] (150 mg/kg, normothermic conditions) it was 3 days; in data set [1] (300 mg/kg, normothermic conditions), 2.5 days. Also, the “NDS day 3, median neurological deficit score” value in data set [2] (150 mg/kg) is “(38)”; in data set [2] (300 mg/kg) it was “NA, (40)”. For the same molecule, in data set [2] (300 mg/kg, individual rats), the “NDS day 3” value is “NA, 40”.

On to `NC(=O)CC[C@@H]1NC(=O)[C@H](Cc2ccccc2)NC(=O)[C@H](Cc2ccc(O)cc2)NC(=O)[C@@H](N)CSSC[C@@H](C(=O)N2CCC[C@H]2C(=O)N[C@@H](CCCN=C(N)N)C(=O)NCC(N)=O)NC(=O)[C@H](CC(N)=O)NC1=O` [Vasopressin], for which the “Average Survival days” value in data set [1] (0.5 U/kg, normothermic conditions) was 5 days; in data set [1] (0.75 U/kg, normothermic conditions) it was 3 days. Moreover, the “effect on mortality / neurological deficit score” value in data set [1] is reported as “minimal effect on mortality or the neurological deficit score”. For the same molecule, the enhancement of survival result in data set [1] (vasopressin alone, normothermic conditions) is on record as “approximately 3 fold”. Further, the “NDS day 3, median neurological deficit score” value in data set [2] (0.5 U/kg) is given as “(36)”; in data set [2] (0.75 U/kg) it was “(30)”. The “NDS day 7” value in data set [2] (0.5 U/kg, individual rats) was “NA, NA, 22”; in data set [2] (0.5 U/kg, single surviving rat (summary table)), “NA, NA, 22”. Moreover, the “NDS 72 hours after resuscitation” value in data set [2] is recorded as 30. In addition, in data set [2] (vasopressin alone), the “neurological deficits 72 hours after resuscitation” value is on record as “reduced neurological deficits”.

As for Insulin: antihyperglycemic compound, in data set [1] (setting [8]), the “Average Survival days” value was 2 days and the Survival days was determined as 2 days.
